Source: patent EP1928474B1, “USE OF GLUCOSYLATED HYDROXYSTILBENES FOR THE PREVENTION AND TREATMENT OF EYE PATHOLOGIES” (Tubilux Pharma S.P.A., priority 2005, dated 2007)

Tests used:
[1] = system: human liver myofibroblasts; conditions: literature; cited from earlier work
hTERT fibroblasts [2] = experiment: Differentiation of TGF-β-stimulated hTERT fibroblasts into myofibroblasts, α-SMA-positive cells by flow cytometry; assay type: cell-based, human; conditions: 5 µg/ml; for percentage of cells capable of expressing α-SMA: sub-optimal dose (0.1 ng/ml) of TGF-β, Figure 2
Protocol: The study aimed at determining the effects of piceide treatment on the differentiation of corneal fibroblasts immortalised with human inverse telomerase transcriptase (hTERT fibroblasts) stimulated with sub-optimal, optimal or above-optimal doses of TGF-β. Fibroblast differentiation into myofibroblasts was determined by examining whether there was any α-smooth muscle actin (α-SMA).
Some hTERT fibroblasts maintained in a DMEM culture were re-suspended at a concentration of 1x10^6 and placed on 24mm-well plates. The cells were incubated at a temperature of 37°C with piceide or resveratrol at doses of 5 µg/ml. After 24 h the cells were stimulated with optimal (1ng/ml), sub-optimal (0.1 ng/ml) and above-optimum (10 ng ml) doses of TGF-β. After 3, 5 and 10 days of incubation, the fibroblasts were washed and re-suspended in PBS at a concentration of 1x10^6, in order to determine the α-SMA-positive cells by means of flow cytometry.
The cells treated in the aforesaid way were permeabilised by treatment with 70% ethanol and then labelled with 5µg/ml of a human anti-α-SMA antibody labelled with FITC. After colouring, the cells were fixed in paraformaldehyde and analysed by a means of a FACScan cytofluorimeter.

[3] = system: inducible nitric-synthesase oxide (iNOS); experiment: iNOS production by hTERT fibroblasts stimulated with cytokines (IL-1 + IFN-γ), iNOS-positive cells by flow cytometry; assay type: cell-based, human; conditions: for number of iNOS-positive fibroblasts: pre-incubation at 1.25 - 2.5 - 5 µg/ml, then IL-1 3 ng/ml + IFN-γ 250 U/ml, 48 h, Figure 1
Protocol: The study aimed at determining the effects of treatment with piceide and resveratrol on the inducible nitric-synthesase oxide (iNOS) by corneal fibroblasts immortalised with human Telomerase Reverse Transcriptase (hTERT fibroblasts), stimulated with interferon-γ (IFN-γ) and interleukine-1 (IL-1).
Some hTERT fibroblasts were maintained in a DMEM culture medium. They were subsequently re-suspended at a concentration of 1x10^6 and placed on 24 mm-well plates. The cells were incubated at a temperature of 37°C with piceide or resveratrol at doses of 1.25 - 2.5 - 5 µg/ml. After 15 minutes the following were added to the wells containing the cells: IL-1 at a concentration of 3 ng/ml, and IFN-γ at a concentration of 250 U/ml. After a further 48 h of incubation, the fibroblasts were washed and re-suspended in PBS at a concentration of 1x10^6, in order to determine the iNOS-positive cells by means of flow cytometry.
The cells treated in the aforesaid way were permeabilised by treatment with 70% ethanol and then labelled with 5 µg/ml of a human anti-iNOS antibody labelled with FITC. After; colouring, the cells were fixed in paraformaldehyde and analysed by means of a FACScan cytofluorimeter.

[4] = system: fibroblasts of normal corneal origin; experiment: Differentiation of TGF-β-stimulated fibroblasts of normal corneal origin into myofibroblasts, α-SMA expression; assay type: cell-based
From the text: As reported in detail in the experimental section below, piceide has - unlike resveratrol - unexpectedly proven to be capable of modulating the capacity of TGF-β to cause fibroblast differentiation into myofibroblasts.

iNOS = iNOS production by fibroblasts of normal corneal origin stimulated with IL-1; assay type: cell-based; conditions: equal doses
From the text: As will be illustrated in greater detail in the experimental section below, piceide - at non-toxic levels - blocks iNOS production and its activity is correlated to the dose. […] This different activity is probably due to the different chemical structure of the two molecules and to the consequent different biological characteristics, among which the greater bioavailability of piceide at the cell level is important. Another anti-inflammatory effect of piceide, linked to what has been said above, lies in its capacity to inhibit cyclooxygenase synthesis and thus the synthesis and release of pro-inflammatory prostaglandins.

hTERT fibroblasts [5] = experiment: Toxicity for hTERT fibroblasts at the doses assayed; conditions: doses of the differentiation study, 5 µg/ml

Compound	effect on liver myofibroblasts [1]	α-SMA expression [1]	percentage of α-SMA+ cells (hTERT fibroblasts [2]; above-optimal dose of TGF-β, time not stated)	percentage of α-SMA+ cells (hTERT fibroblasts [2]; optimal dose of TGF-β, time not stated)	percentage of α-SMA+ cells (hTERT fibroblasts [2]; sub-optimal dose of TGF-β, time not stated)	number of iNOS-positive fibroblasts [3]	TGF-β activity assessed by α-SMA expression ([4]; fibroblasts of normal corneal origin, sub-optimal concentration of TGF-β)	α-SMA expression ([4]; normal fibroblasts, above-optimal concentration of TGF-β)	percentage of α-SMA+ cells (hTERT fibroblasts [2]; above-optimal dose (10 ng/ml) of TGF-β, 5th day, Figure 4)	percentage of α-SMA+ cells (hTERT fibroblasts [2]; above-optimal dose (10 ng/ml) of TGF-β, 10th day, Figure 4)	percentage of α-SMA-positive cells (hTERT fibroblasts [2]; optimal dose (1 ng/ml) of TGF-β, all three time intervals (3, 5, 10 days), Figure 3)	percentage of cells capable of expressing α-SMA (hTERT fibroblasts [2]; 5th day)	percentage of cells capable of expressing α-SMA (hTERT fibroblasts [2]; 10th day)	percentage of cells capable of expressing α-SMA (hTERT fibroblasts [2]; 3 days, compared to non-treated)	inhibition of iNOS production compared to resveratrol (iNOS)	toxicity (hTERT fibroblasts [5])	decrease in iNOS-positive fibroblasts compared to resveratrol ([3]; equal doses 1.25 - 2.5 - 5 µg/ml, differences statistically significant at each point)
Oc1cc(O)cc(/C=C/c2ccc(O)c(O)c2)c1 [trans-piceatannol, trans-3,4',3',5-tetrahydroxystilbene]	neither trans-piceide nor another hydroxystilbene - trans-piceatannol (trans-3,4',3',5-tetrahydroxystilbene) - have shown any effect																
Oc1ccc(/C=C/c2cc(O)cc(O)c2)cc1 [resveratrol, reference compound]	able to deactivate human liver myofibroblasts	reduction	did not lead to any statistically significant variation	did not lead to any statistically significant variation	did not lead to any statistically significant variation	decrease											
OC[C@H]1O[C@@H](Oc2cc(O)cc(/C=C/c3ccc(O)cc3)c2)[C@H](O)[C@@H](O)[C@@H]1O [piceide, resveratrol-3-O-β-mono-D-glucoside]	did not show any significant effects					dose-dependent decrease	increase growth factor activity	decrease in α-SMA expression	percentage decrease in fibroblasts which was already significant	brought the number of fibroblasts back to physiological conditions	did not lead to any significant percentage variations	decreased, although still remaining statistically significant	no longer any significant percentages of cells able to express α-SMA	statistically significant increase	more effective	does not appear toxic	greater
